Earlier results on one compound are cited in publication PMC2864005 (Archives of biochemistry and biophysics, 2010).

The data set has as its system 3A4. To be noted: after an initial burst.

As to `CCC(C)n1ncn(-c2ccc(N3CCN(c4ccc(OCC5COC(Cn6cncn6)(c6ccc(Cl)cc6Cl)O5)cc4)CC3)cc2)c1=O` (stereo not shown) [itraconazole], the Rate of metabolism was 0.0016 s⁻¹.
